Measurements reported in patent US7358276B2, “2-Oxo-1-pyrrolidine derivatives, processes for preparing them and their uses” (UCB, S.A., priority 2000, dated 2008).

What was measured:
[1] = target: T1, Levetiracetam Binding Site (LBS), rat cerebral cortex membranes (Rattus norvegicus, UniProt Q02563); experiment: LBS binding assay (competitive binding, [3H]-2-[4-(3-azidophenyl)-2-oxo-1-pyrrolidinyl]butanamide); details: 4° C., 120 min
T1 construct: The crude membrane pellet obtained is resuspended in 50 mmol/l Tris-HCl (pH 7.4); from tissue; host or cells: rat cerebral cortex crude membranes (male Sprague-Dawley)
T1 sequence (Q02563 whole entry): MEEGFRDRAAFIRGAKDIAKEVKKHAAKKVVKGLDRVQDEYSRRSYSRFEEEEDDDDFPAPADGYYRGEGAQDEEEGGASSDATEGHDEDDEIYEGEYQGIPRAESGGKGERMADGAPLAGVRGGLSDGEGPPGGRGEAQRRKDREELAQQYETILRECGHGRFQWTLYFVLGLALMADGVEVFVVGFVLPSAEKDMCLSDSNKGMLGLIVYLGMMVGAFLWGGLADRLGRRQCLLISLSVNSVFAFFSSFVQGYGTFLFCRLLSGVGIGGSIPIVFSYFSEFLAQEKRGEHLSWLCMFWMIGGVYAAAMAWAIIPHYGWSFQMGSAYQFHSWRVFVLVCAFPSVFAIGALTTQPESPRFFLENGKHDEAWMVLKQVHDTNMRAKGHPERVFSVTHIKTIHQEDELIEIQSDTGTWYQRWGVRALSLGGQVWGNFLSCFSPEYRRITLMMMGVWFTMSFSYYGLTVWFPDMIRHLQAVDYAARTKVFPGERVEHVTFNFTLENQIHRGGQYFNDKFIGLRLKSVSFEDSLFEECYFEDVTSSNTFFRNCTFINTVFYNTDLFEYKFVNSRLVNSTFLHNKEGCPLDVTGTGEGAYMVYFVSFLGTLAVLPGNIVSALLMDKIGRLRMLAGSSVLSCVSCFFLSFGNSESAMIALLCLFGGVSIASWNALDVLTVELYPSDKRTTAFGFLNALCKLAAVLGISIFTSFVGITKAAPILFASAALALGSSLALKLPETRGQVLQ

[2] = system: audiogenic seizures in sound-susceptible mice; experiment: Animal model of sound-susceptible mice (audiogenic seizures); format: in vivo; details: intraperitoneally 60 minutes before induction of audiogenic seizures; doses given in mol/kg
Excerpt: The activity of the compounds of formula I, or their pharmaceutically acceptable salts, as anticonvulsants can be determined in the audiogenic seizures model. The objective of this test is to evaluate the anticonvulsant potential of a compound by means of audiogenic seizures induced in sound-susceptible mice, a genetic animal model with reflex seizures. In this model of primary generalised epilepsy, seizures are evoked without electrical or chemical stimulation and the seizure types are, at least in part, similar in their clinical phenomenology to seizures occurring in man (Löscher W. & Schmidt D., Epilepsy Res. (1998), 2, p. 145-181; Buchhalter J. R., Epilepsia (1993), 34, S31-S41). Results obtained with compounds of formula I are indicative of a strong pharmacological effect.
The objective of this test is to evaluate the anticonvulsant potency of a compound in sound-susceptible mice, a genetic animal model with reflex seizures. In this model of primary generalised epilepsy, seizures are evoked without electrical or chemical stimulation and the seizure types are, at least in part, similar in their clinical phenomenology to seizures occuring in man (Löscher W. & Schmidt D., Epilepsy Res. (1998), 2, 145-181; Buchhalter J. R., Epilepsia (1993), 34, S31-S41).
Male or female genetically sound-sensitive mice (14-28 g; N=10), derived from a DBA strain originally selected by Dr. Lehmann of the Laboratory of Acoustic Physiology (Paris) and bred in the UCB Pharma Sector husbandry unit since 1978, are used. The experimental design consisted of several groups, one group receiving the vehicle control and the other groups different doses of the test-compound. The compounds are administered intraperitoneally 60 minutes before the induction of audiogenic seizures.
For testing, the animals are placed in small cages, one mouse per cage, in a sound-attenuated chamber. After a period of orientation of 30 seconds, the acoustic stimulus (90 dB, 10-20 kHz) is delivered for 30 seconds via loudspeakers positioned above each cage. During this interval, the mice are observed and the presence of the 3 phases of the seizure activity namely wild running, clonic and tonic convulsions, is recorded. The proportion of mice protected against wild running, clonic and tonic convulsions, respectively, is calculated.
For active compounds, an ED50 value, i.e. the dose producing 50% protection relative to the control group, together with 95% confidence limits, was calculated using a Probit Analysis (SAS/STAT® Software, version 6.09, PROBIT procedure) of the proportions of protected mice for each of the 3 phases of the seizure activity.

| Compound | melting point | pKi (affinity for the levetiracetam binding site) [1] | ED50 (dose producing 50% protection against audiogenic seizures) [2] |
| --- | --- | --- | --- |
| CC[C@@H](C(N)=O)N1CC(c2ccsc2)CC1=O (stereo partly shown) [Compound 83] | 93 to 95 °C | Particular affinity | – |
| CCC(C(N)=O)N1CC(/C=C\F)CC1=O (stereo not shown) [Compound 162] | 105 °C | Particular affinity | Particularly promising activity |
| CC[C@@H](C(N)=O)N1CC(c2ccccc2)CC1=O (stereo partly shown) [Compound 23] | 92.4 °C | Particular affinity | Particularly promising activity |
| CCC(C(N)=O)N1CC(c2ccc(Cl)c(Cl)c2)CC1=O (stereo not shown) [Compound 200] | 154.4 °C | Particular affinity | Particularly promising activity |
| CC[C@@H](C(N)=O)N1CC(CC2CC2)CC1=O (stereo partly shown) [Compound 212] | 104.4 °C | Particular affinity | Particularly promising activity |
| CCC(C(N)=O)N1CC(c2cccc(C)c2)CC1=O (stereo not shown) [Compound 219] | 79.4 °C | Particular affinity | Particularly promising activity |
| CCC(C(N)=O)N1CC(CC(C)C)CC1=O (stereo not shown) [Compound 166] | 120.2 °C | Particular affinity | Particularly promising activity |
| CC[C@@H](C(N)=O)N1CC(c2ccccc2)CC1=O (stereo partly shown) [Compound 22] | 89 °C | Particular affinity | Particularly promising activity |
| CCC(C(N)=O)N1CC(c2ccco2)CC1=O (stereo not shown) [Compound 196] | – | Particular affinity | Particularly promising activity |
| CCC(C(N)=O)N1CC(c2ccc(Cl)cc2Cl)CC1=O (stereo not shown) [Compound 188] | 154.7 °C | Particular affinity | Particularly promising activity |
| CCC(C(N)=O)N1CC(c2cc(C(F)(F)F)cc(C(F)(F)F)c2)CC1=O (stereo not shown) [Compound 185] | 148.6 °C | Particular affinity | – |
| CCC(C(N)=O)N1CC(c2ccco2)CC1=O (stereo not shown) [Compound 195] | – | Particular affinity | Particularly promising activity |
| CCC(C(N)=O)N1C[C@H](CC(C)(F)F)CC1=O (stereo partly drawn) [Compound 265, 2-[(4S)-4-(2,2-difluoropropyl)-2-oxopyrrolidinyl]butanamide] | 110.9 °C | Particular affinity | – |
| CC[C@@H](C(N)=O)N1CC(c2ccccc2OC)CC1=O (stereo partly shown) [Compound 73] | 112 °C | Particular affinity | – |
| CCC(C(N)=O)N1CC(CI)CC1=O (stereo not shown) [Compound 103] | 171.7 °C | Particular affinity | – |
| (2S)-2-[4-(iodomethyl)-2-oxo-1-pyrrolidinyl]propanamide [Compound 110] | – | Particular affinity | Particularly promising activity |
| CCC1CC(=O)N([C@@H](CC)C(N)=O)C1 (stereo partly shown) [Compound 151] | – | Particular affinity | Particularly promising activity |
| CC[C@@H](C(N)=O)N1CC(CSC)CC1=O (stereo partly shown) [Compound 100] | – | Particular affinity | Particularly promising activity |

| Compound | melting point | pKi (affinity for the levetiracetam binding site) [1] | ED50 (dose producing 50% protection against audiogenic seizures) [2] |
| --- | --- | --- | --- |
| CC[C@@H](C(N)=O)N1CC(C)CC1=O (stereo partly shown) [36] | 56.9 °C | – | – |
| CC[C@H](C(N)=O)N1CC(c2cccs2)CC1=O (stereo partly shown) | 84 °C | – | – |
| CCCC1CC(=O)N([C@@H](CC)C(N)=O)C1 (single isomer, unassigned) [Compound 158] | – | Particular affinity | Particularly promising activity |
| CC[C@@H](C(N)=O)N1CC(n2cccc2Br)CC1=O (stereo partly drawn) [Compound 234, (2S)-2-[4-(2-bromo-1H-pyrrol-1-yl)-2-oxo-1-pyrrolidinyl]butanamide] | – | Particular affinity | Particularly promising activity |
| (2S)-2-[4-(iodomethyl)-2-oxo-pyrrolidin-1-yl]pentanamide [Compound 105] | – | Particular affinity | Particularly promising activity |
| CCCC1CC(=O)N([C@@H](CC)C(N)=O)C1 (single isomer, unassigned) [Compound 159] | – | Particular affinity | Particularly promising activity |
| CCC1CC(=O)N([C@@H](CC)C(N)=O)C1 (stereo partly shown) [Compound 152] | – | Particular affinity | Particularly promising activity |
| CC[C@@H](C(N)=O)N1CC(CCc2ccccc2)CC1=O (stereo partly shown) [Compound 175] | 89.5 °C | Particular affinity | – |
| CC[C@@H](C(N)=O)N1CC(CF)CC1=O (stereo partly shown) | 87.1 °C | – | – |
| CC[C@@H](C(N)=O)N1CC(C=C(F)F)CC1=O (stereo partly drawn) [Compound 213, (2S)-2-(2-oxo-4-(2,2-difluorovinyl)-1-pyrrolidinyl)butanamide] | – | Particular affinity | Particularly promising activity |
| CCC(C(N)=O)N1CC(C=C(F)F)CC1=O (stereo not shown) [Compound 156] | – | Particular affinity | Particularly promising activity |
| CC[C@@H](C(N)=O)N1CC(CCc2ccccc2)CC1=O (stereo partly shown) [Compound 176] | 100.2 °C | Particular affinity | – |
| CCCC1CC(=O)N(C(CC)C(N)=O)C1 (stereo not shown) [Compound 201] | – | Particular affinity | Particularly promising activity |
| CC[C@@H](C(N)=O)N1CC(c2cccc(OC)c2)CC1=O (stereo partly shown) [Compound 75] | 91.3 °C | Particular affinity | – |
| CCC(C(N)=O)N1CC(C#CBr)CC1=O (stereo not shown) [Compound 267, 2-(4-bromo-ethynyl-2-oxo-1-pyrrolidinyl)butanamide] | 103.9 °C | Particular affinity | – |
| CC[C@@H](C(N)=O)N1CC(C)CC1=O (stereo partly shown) [35] | 73.9 °C | – | – |
| (2S)-2-(2-oxo-4-(2,2-difluorovinyl)-1-pyrrolidinyl)butanamide [Compound 222] | – | Particular affinity | Particularly promising activity |
| CCC(C(N)=O)N1CC(CC2CC2)CC1=O (stereo not shown) [Compound 165] | – | Particular affinity | Particularly promising activity |
